ChEMBL document CHEMBL4673379 (ACS Med Chem Lett, 2021)

Legend:
[1] = system: Vero; experiment: Cytotoxicity against African green monkey Vero cells assessed as reduction in cell growth by coulter counter analysis; type: cell-based; settings: chlorocebus sabaeus
[2] = Selectivity index, ratio of CC50 for African green monkey Vero cells to EC50 for antiviral activity against SARS-CoV-2 UC-1075 infected in African green monkey Vero cells; type: toxicity; settings: read-out: Ratio CC50/EC50
[3] = Cytotoxicity against African green monkey Vero cells assessed as alteration in cell morphology by microscopic analysis; type: cell-based; settings: chlorocebus sabaeus
[4] = Selectivity index, ratio of CC50 for human HEL cells to EC50 for antiviral activity against thymidine kinase deficient Varicella zoster virus 07-1 infected in human HEL cells; type: toxicity, cell-based; settings: read-out: Ratio CC50/EC50
[5] = system: Human betaherpesvirus 5; experiment: Antiviral activity against Human cytomegalovirus AD169 infected in human HEL cells assessed as reduction in virus plaque formation measured on day 6 to 7 post-viral infection; type: functional, cell-based; settings: Human betaherpesvirus 5, AD169, HEL, 144 h
[6] = system: Human alphaherpesvirus 3; experiment: Antiviral activity against thymidine kinase deficient Varicella zoster virus 07-1 infected in human HEL cells assessed as reduction in virus plaque formation measured on day 5 post-viral infection; type: functional, organism-based; settings: Human alphaherpesvirus 3, 07-1, HEL, 120 h
[7] = Cytotoxicity against human HEL cells assessed as alteration in cell morphology incubated for 3 days by microscopic analysis; type: cell-based; settings: time 3 day
[8] = system: SARS-CoV-2; experiment: Antiviral activity against SARS-CoV-2 UC-1074 infected in African green monkey Vero cells assessed as reduction in virus plaque formation measured on day 5 post-viral infection by microscopic analysis; type: functional, organism-based; settings: Severe acute respiratory syndrome coronavirus 2, UC-1074, Vero, 120 h
[9] = system: Human betaherpesvirus 5; experiment: Antiviral activity against Human cytomegalovirus Davis infected in human HEL cells assessed as reduction in virus plaque formation measured on 6 to 7 post-viral infection; type: functional, cell-based; settings: Human betaherpesvirus 5, Davis
[10] = system: SARS-CoV-2; experiment: Antiviral activity against SARS-CoV-2 infected in African green monkey Vero cells assessed as reduction in virus plaque formation measured on day 5 post-viral infection by microscopic analysis relative to remdesivir; type: functional, Severe acute respiratory syndrome coronavirus 2; settings: time 5 day
[11] = system: HEL; experiment: Cytotoxicity against human HEL cells assessed as reduce in cell growth incubated for 3 days by coulter counter analysis; type: cell-based; settings: 72 h, time 3 day
[12] = system: Human alphaherpesvirus 3; experiment: Antiviral activity against thymidine kinase positive Varicella zoster virus OKA infected in human HEL cells assessed as reduction in virus plaque formation measured on day 5 post-viral infection; type: functional, organism-based; settings: Human alphaherpesvirus 3, OKA, 120 h
[13] = system: SARS-CoV-2; experiment: Antiviral activity against SARS-CoV-2 UC-1075 infected in African green monkey Vero cells assessed as reduction in virus plaque formation measured on day 5 post-viral infection by microscopic analysis; type: functional, organism-based; settings: Severe acute respiratory syndrome coronavirus 2, UC-1075, Vero, 120 h
[14] = Selectivity index, ratio of CC50 for human HEL cells to EC50 for antiviral activity against thymidine kinase positive Varicella zoster virus OKA infected in human HEL cells; type: toxicity, cell-based; settings: read-out: Ratio CC50/EC50
[15] = system: Enterovirus C; experiment: Antiviral activity against Polio virus Mahoney infected in human HeLa cells assessed as inhibition of viral replication incubated for 2 days by luminescence analysis; type: functional, organism-based; settings: 48 h
[16] = system: Human immunodeficiency virus 1; experiment: Antiviral activity against HIV-1 infected in HEK293T cells assessed as inhibition of viral replication treated with compound 2 hrs prior to viral infection and measured after 24 hrs by flow cytometry; type: functional, organism-based; settings: Human immunodeficiency virus 1, HEK-293T
[17] = system: rhinovirus A1B; experiment: Antiviral activity against Human rhinovirus 1B infected in human HeLa cells assessed as inhibition of virus-induced cytopathicity measured after 2 days by SRB method; type: functional, organism-based; settings: Rhinovirus A, 48 h
[18] = system: SARS-CoV-2; experiment: Antiviral activity against SARS-CoV-2 infected in African green monkey Vero E6 cells assessed as reduction in viral RNA copy number incubated for 24 hrs by real time RT-PCR analysis; type: functional, organism-based; settings: Severe acute respiratory syndrome coronavirus 2, Vero C1008, 24 h
[19] = system: Hepatitis C virus; experiment: Antiviral activity against Hepatitis C virus assessed as inhibition of viral replication incubated for 3 days by Renilla luciferase based assay; type: functional, organism-based, Hepacivirus hominis; settings: 72 h
[20] = system: Zika virus; experiment: Antiviral activity against Zika virus infected in human RPE cells assessed as inhibition of virus-induced cytopathic effect measured at 48 hrs post-viral infection by CellTiter Glo assay; type: functional, organism-based; settings: HRPE
[21] = system: Influenza A virus; experiment: Antiviral activity against Influenza A virus (A/Puerto Rico/8/34(H1N1)) expressing NS116-GFP infected in human RPE cells assessed as inhibition of viral replication measured after 24 hrs by luminescence based assay; type: functional, organism-based; settings: A/Puerto Rico/8/1934(H1N1), HRPE
[22] = system: Middle East respiratory syndrome-related coronavirus; experiment: Antiviral activity against MERS-CoV Hu/Jordan-N3/2012 infected in African green monkey Vero E6 cells assessed as inhibition of viral replication treated for 1 hr prior to viral infection and measured after 48 hrs by ELISA; type: functional, organism-based; settings: Hu/Jordan-N3/2012, Vero C1008

SMILES	CC50 [1] [nM]	MCC [3] [µM]	EC50 [5] [nM]	EC50 [6] [nM]	MCC at 72 h [7] [µM]	EC50 [8] [nM]	EC50 [9] [nM]	CC50 [11] [nM]	EC50 [12] [nM]	EC50 [13] [nM]	further results
C[C@H](NP(=O)(OC[C@@]1(F)O[C@@H](n2ccc(N)nc2=O)C(F)(F)[C@@H]1O)Oc1ccccc1)C(=O)OCc1ccccc1 (stereo not given in full)	1440	4	15500	2840	> 100	≥ 2400	4000	84400	2320	730	selectivity ratio [2]: < 2; selectivity ratio [4]: 29; Ratio [10]: 10; selectivity ratio [14]: 36
CCC(CC)COC(=O)[C@H](C)N[P@](=O)(OC[C@H]1O[C@@](C#N)(c2ccc3c(N)ncnn23)[C@H](O)[C@@H]1O)Oc1ccccc1	> 40000	> 40				5800				1520	
O=c1ccn([C@@H]2O[C@](F)(CO)[C@@H](O)C2(F)F)c(=O)[nH]1			> 100000	> 100000	> 100		> 100000		> 100000		
O=c1[nH]c(=O)n([C@H]2C[C@H](O)[C@@H](CO)O2)cc1/C=C/Br [BRIVUDINE]				6040	> 300			> 300000	36		selectivity ratio [4]: > 49; selectivity ratio [14]: > 8330
Nc1nc2c(ncn2COCCO)c(=O)[nH]1 [ACYCLOVIR]					> 440			424000			
CCN(CCO)CCCC(C)Nc1ccnc2cc(Cl)ccc12 (stereo not given) [HYDROXYCHLOROQUINE]	36900	100				8100				1740	
CO[C@]1(COP(=O)(N[C@@H](C)C(=O)OCc2ccccc2)Oc2ccccc2)O[C@@H](n2ccc(N)nc2=O)C(F)(F)[C@@H]1O (stereo not given in full)	≥ 93600	≥ 100	> 100000	> 100000	> 100	> 100000	> 100000		> 100000	≥ 55100	
Nc1ccn(C[C@@H](CO)OCP(=O)(O)O)c(=O)n1 [CIDOFOVIR]			650		300		340				
C[C@H](NP(=O)(OC[C@H]1O[C@@H](n2ccc(N)nc2=O)C(F)(F)[C@@H]1O)Oc1ccccc1)C(=O)OCc1ccccc1 (stereo not given in full) [FOSGEMCITABINE PALABENAMIDE]	20	0.048	66	89	> 100	> 32	32	340	74	> 12.8	selectivity ratio [4]: 3; selectivity ratio [14]: 4
Nc1ccn([C@@H]2O[C@](F)(CO)[C@@H](O)C2(F)F)c(=O)n1	260	0.16	815	166	20	360	930	110	42	96	selectivity ratio [2]: 2; selectivity ratio [4]: < 1; Ratio [10]: 20; selectivity ratio [14]: 2
CO[C@]1(CO)O[C@@H](n2ccc(=O)[nH]c2=O)C(F)(F)[C@@H]1O			> 100000	> 100000	> 100		> 100000		> 100000		
Nc1ccn([C@@H]2O[C@H](CO)[C@@H](O)C2(F)F)c(=O)n1 [GEMCITABINE]	4.3	0.008	74	54	20	> 3.2	53	3.6	28	> 1.6	IC50 [15]: 300 nM; EC50 [16]: 16.3 nM; EC50 [17]: 810 nM; EC50 [18]: 1240 nM; EC50 [19]: 12 nM; EC50 [20]: 10 nM; EC50 [21]: 68 nM; EC50 [22]: 1220 nM
CO[C@]1(CO)O[C@@H](n2ccc(N)nc2=O)C(F)(F)[C@@H]1O	> 100000	> 100	> 100000	> 100000	> 100		> 100000		> 100000	≥ 86200	
Nc1nc(O)c2ncn(COC(CO)CO)c2n1 [GANCICLOVIR]					350						
